Results on one compound are retold here after PMC3692405, “Disease-associated mutations in CNGB3 promote cytotoxicity in photoreceptor-derived cells” (Molecular Vision, 2013).

Positions count from the first letter of the chain named. Where two headings read alike, the source gives them in different places.

Format in all cases: biochemical
Common to all, as to details: in the presence of 0.1 µM CPT-cGMP

Assay [1] deals with T1, CNGA3 plus CNGB3-F525N channels (Homo sapiens, UniProt Q16281+Q9NQW8, F525N).
T1 construct: expressed in transfected cells; host or cells: Xenopus laevis oocytes injected with cRNA transcribed from pGEMHE constructs
T1 sequence (Q16281 1-694): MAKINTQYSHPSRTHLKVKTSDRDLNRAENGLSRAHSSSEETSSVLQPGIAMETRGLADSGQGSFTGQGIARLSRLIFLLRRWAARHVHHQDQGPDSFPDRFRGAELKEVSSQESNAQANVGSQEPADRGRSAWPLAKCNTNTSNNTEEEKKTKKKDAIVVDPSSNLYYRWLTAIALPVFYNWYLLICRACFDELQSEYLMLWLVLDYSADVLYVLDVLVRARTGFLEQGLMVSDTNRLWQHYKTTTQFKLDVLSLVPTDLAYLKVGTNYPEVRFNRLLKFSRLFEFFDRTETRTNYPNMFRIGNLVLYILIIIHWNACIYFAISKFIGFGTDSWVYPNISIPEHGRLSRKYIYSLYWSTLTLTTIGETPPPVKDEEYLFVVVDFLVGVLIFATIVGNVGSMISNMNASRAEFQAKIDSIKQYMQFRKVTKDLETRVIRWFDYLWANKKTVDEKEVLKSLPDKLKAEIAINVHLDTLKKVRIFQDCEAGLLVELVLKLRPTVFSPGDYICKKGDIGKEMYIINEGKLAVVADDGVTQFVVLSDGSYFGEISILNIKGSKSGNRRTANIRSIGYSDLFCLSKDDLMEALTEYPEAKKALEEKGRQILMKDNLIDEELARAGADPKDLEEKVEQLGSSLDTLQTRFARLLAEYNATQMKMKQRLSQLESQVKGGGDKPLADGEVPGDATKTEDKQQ
T1 sequence (Q9NQW8 1-809 F525N): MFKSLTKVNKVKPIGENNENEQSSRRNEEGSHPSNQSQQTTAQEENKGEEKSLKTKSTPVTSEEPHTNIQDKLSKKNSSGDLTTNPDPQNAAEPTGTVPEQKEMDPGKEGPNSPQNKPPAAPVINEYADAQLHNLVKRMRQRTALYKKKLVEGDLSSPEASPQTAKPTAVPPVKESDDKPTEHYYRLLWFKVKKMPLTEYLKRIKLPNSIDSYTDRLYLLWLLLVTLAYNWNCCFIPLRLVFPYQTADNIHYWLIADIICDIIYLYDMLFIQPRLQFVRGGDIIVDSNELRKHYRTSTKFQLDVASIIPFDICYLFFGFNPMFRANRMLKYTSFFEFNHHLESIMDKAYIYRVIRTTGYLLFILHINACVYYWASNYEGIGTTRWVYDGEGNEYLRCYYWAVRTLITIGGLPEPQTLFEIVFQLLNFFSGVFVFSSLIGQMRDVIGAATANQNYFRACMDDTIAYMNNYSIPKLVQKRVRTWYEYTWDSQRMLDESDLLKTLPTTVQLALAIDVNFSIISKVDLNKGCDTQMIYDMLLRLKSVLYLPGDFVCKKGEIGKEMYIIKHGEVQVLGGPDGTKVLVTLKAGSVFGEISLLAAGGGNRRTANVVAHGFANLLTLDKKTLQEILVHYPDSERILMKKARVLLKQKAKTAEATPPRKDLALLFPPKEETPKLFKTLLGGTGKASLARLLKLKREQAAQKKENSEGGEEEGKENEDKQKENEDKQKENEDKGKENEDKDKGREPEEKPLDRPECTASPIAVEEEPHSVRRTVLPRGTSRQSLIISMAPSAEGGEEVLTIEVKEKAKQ
Nature of the assay: Inside-out patch-clamp recording of channels expressed in Xenopus oocytes (CNGB3 F525N). The protocol:
(§1) For heterologous expression in Xenopus laevis oocytes, identical amounts of cDNA were linearized using SphI or NheI, and capped cRNA was transcribed in vitro using the T-7 RNA polymerase mMESSAGE mMACHINE® kit (Ambion, Austin, TX). cRNA concentrations and relative amounts were determined by denaturing gel electrophoresis and KODAK 1D image analysis software (Rochester, NY), as well as by spectrophotometry. […] Oocytes were incubated in ND96 (96 mM NaCl, 2 mM KCl, 1.8 mM CaCl2, 1 mM MgCl2, and 5 mM HEPES, pH 7.6, supplemented with 10 μg/ml gentamycin).
(§2) Two to seven days after microinjection of cRNA, patch-clamp experiments were performed using the inside-out configuration with an Axopatch 200B amplifier (Axon Instruments, Foster City, CA). Recordings were made at 20–23 °C. Data were acquired using Pulse software (HEKA Elektronik, Lambrecht, Germany). Current traces were elicited by voltage steps from a holding potential of 0 mV to +80 mV, then to −80 mV and back to 0 mV. Initial pipette resistances were 0.4–0.8 megaohms. Intracellular and extracellular solutions contained 130 mM NaCl, 0.2 mM EDTA, and 3 mM HEPES (pH 7.2). Intracellular solutions were exchanged using an RSC-160 rapid solution changer (Molecular Kinetics, Indianapolis, IN). Currents in the absence of cyclic nucleotides were subtracted. For channel activation by CPT-cGMP or CPT-cAMP, dose–response data were fitted with the Hill equation, I/Imax=([cNMP]^h/(K1/2^h + [cNMP]^h)), where I is the current amplitude at +80 mV, Imax is the maximum current elicited by saturating concentration of ligand, [cNMP] is the ligand concentration, K1/2 is the apparent ligand affinity, and h is the Hill slope. We measured sensitivity to block by L-cis-diltiazem (RBI, Natick, MA) applied to the intracellular face of the patch in the presence of 0.1 μM CPT-cGMP. Data were fit with a modified Hill equation in the form I blocker/I=(K1/2^h/(K1/2^h + [blocker]^h)). Data were analyzed using Igor (Wavemetrics, Lake Oswego, OR), SigmaPlot, and SigmaStat (Systat Software Inc., San Jose, CA). All values are reported as the mean±standard error of the mean of n experiments unless otherwise indicated. Statistical significance was determined using a Student t test or Mann–Whitney rank sum test, and a p value of <0.05 was considered significant.

Assay [2] deals with T2, WT human CNGA3 plus WT CNGB3 heteromeric channels (Homo sapiens, UniProt Q16281+Q9NQW8).
T2 construct: expressed in transfected cells; host or cells: Xenopus laevis oocytes injected with cRNA transcribed from pGEMHE constructs
T2 sequence (Q16281 1-694): T1 sequence (Q16281 1-694)
T2 sequence (Q9NQW8 1-809): T1 sequence (Q9NQW8 1-809 F525N) with N525F
Nature of the assay: Inside-out patch-clamp recording of channels expressed in Xenopus oocytes (WT heteromeric). As for the experimental part:
as §1, §2
(In patch-clamp work, channel activity is measured electrically.)

Assay [3] deals with T3, CNGA3 plus CNGB3 T383fsX channels (Homo sapiens, UniProt Q16281).
T3 construct: expressed in transfected cells; host or cells: Xenopus laevis oocytes injected with cRNA transcribed from pGEMHE constructs
T3 sequence (Q16281 1-694): T1 sequence (Q16281 1-694)
The experiment in a line: Inside-out patch-clamp recording of channels expressed in Xenopus oocytes (CNGB3 T383fsX). The protocol:
as §1, §2

The mark [4] stands for this setting: Figure 6B, read-out: K1/2,L-cis-dilt., dose-response fit of Figure 6B.
Where [5] appears, read: intracellular face, mean±SEM, n=5, read-out: apparent affinity for L-cis-diltiazem K1/2, L-cis-dilt. (channel block).

Regarding `COc1ccc([C@@H]2Sc3ccccc3N(CCN(C)C)C(=O)[C@@H]2OC(C)=O)cc1` [L-cis-diltiazem], the “Hill slope h, block by L-cis-diltiazem, Figure 6B” value is given as 0.7 in assay [1] (Figure 6B), 0.5 in assay [2] (Figure 6B) and 0.3 in assay [3] (Figure 6B). In addition, the IC50 in assay [1] (setting [4]) turned out to be 4.2 µM; in assay [1] (setting [5]) it was 3.03 ± 0.75 µM; in assay [2] (setting [4]), 4.1 µM; in assay [2] (setting [5]) it was 4.06 ± 1 µM; in assay [3] (setting [4]), 135 µM; in assay [3] (intracellular face, mean±SEM, n=4, read-out: apparent affinity for L-cis-diltiazem K1/2, L-cis-dilt. (channel block)), 77.9 ± 23.1 µM.
